We go through two compounds from patent US10570177B2, “P3 peptidylic inhibitors for treating CAG-repeat RNA toxicity in polyglutamine diseases” (The Chinese University of Hong Kong, priority 2017, dated 2020).

Entries after “also recorded” stand apart in the source; their conditions may differ. Residues, ends and D or L forms follow the SMILES beside them. *: point of attachment. Palmitoyl = CCCCCCCCCCCCCCCC(=O)*

One series has as its target MJDCAA/G78 RNA. As to the kind of experiment: Isothermal titration calorimetry binding assay, expanded MJDCAA/G78 RNA. Here is the method:
(§1) To test whether P3V8 specifically targets expanded CAG RNA, ITC experiments were performed using unexpanded CAG RNA (MJDCAG27 RNA), expanded CAG RNA (MJDCAG78 RNA), and expanded CAA/G RNA (MJDCAA/G78 RNA), respectively, to investigate whether the binding of P3V8 is RNA expansion-dependent and sequence-dependent (Table 6).
(§2) Experiments were carried out using a MicroCal iTC200 isothermal titration calorimeter (GE Healthcare) at 25° C. Data were analyzed using the Origin® scientific plotting software version 7 (Microcal Software Inc.). All RNAs and peptides were dissolved in binding buffer (20 mM MOPS, pH 7.0; 300 mM NaCl) and 0.7 mM of peptide was titrated into 0.5 μM of RNA for each experiment. The concentration of RNA was estimated with appropriate extinction coefficients at 260 nm on a Nanodrop 2000 (Thermo Scientific). A reference power of 8 μcal/s was used with an initial 0.5 μl of injection of peptide followed by 2 μl for all subsequent titrations points with a 60 sec initial equilibrium delay and 150 sec pause between injections. The samples were stirred at a speed of 1000 rpm throughout the experiment. The thermal titration data were fitted to the ‘one binding site model’ to determine the dissociation constant (KD). Each experiment was repeated at least 3 times with consistent results obtained.

In another series the target is MJDCAG78 RNA. Briefly: Isothermal titration calorimetry binding assay, expanded MJDCAG78 RNA. The settings on record: ITC at 25° C.; 0.7 mM peptide titrated into 0.5 μM MJDCAG78 RNA; one binding site model; mean ± S.E.M. The method, then:
as §2

A further series has as its system pre-rRNA. Briefly: Real-time PCR of pre-rRNA level in DsRedCAG100 flies. Conditions: 1 μM. It is filed as in vivo, Drosophila. The method, then: Ribosomal RNA (rRNA) synthesis occurs within the nucleolus^15. It was previously shown that expanded CAG RNA induces nucleolar stress by preventing the nucleolar protein NCL from binding to the upstream control element of the rRNA promoter, leading to the downregulation of rRNA transcription^13. To investigate whether P3V8 suppressed neurotoxicity by alleviating expanded CAG RNA-induced nucleolar stress in vivo, the expression levels of pre-rRNA in were measured DsRedCAG100 flies treated with the peptide. […] This confirms that P3V8 subdued polyQ neurodegeneration in vivo by effective mitigation of the expanded CAG RNA-induced nucleolar stress.
(§3) RNA was extracted from cells or ten 12 day-old adult fly heads by Trizol reagent (Life Technologies), and 1 μg of purified RNA was then used for reverse-transcription using the ImPromII™ Reverse Transcription System (Promega). Random hexamer (Roche) was used as primers in reverse transcription. Taqman gene expression assays were performed on an ABI 7500 Real-time PCR system and data were analyzed as previously described^13. The following probes were used: pre-45s rRNA (Assay ID: AILJIZM), pre-rRNA (Assay ID: AIMSG5U), Drosophila GAPDH (Assay ID: Dm01841186) and human actin (Assay ID: Hs99999903_m1). Each experiment was repeated at least 3 times.

In the next series the target is MJDCAG27 RNA. As to the kind of experiment: Isothermal titration calorimetry binding assay, unexpanded MJDCAG27 RNA. Here is the method: as §1, §2
In another series the test system is pre-45s rRNA. Briefly: Real-time PCR of pre-45s rRNA level in EGFPCAG78 RNA-expressing HEK293 cells. It is filed as cell-based, human. The settings on record: with DeliverX. Here is the method:
It was next investigated whether P3V8 could also mitigate expanded CAG RNA-induced toxicity in mammalian cells. […] To compare the inhibitory activity of P3WT and P3V8, the peptide transfection reagent DeliverX (DX) was used to deliver P3WT and P3V8 to EGFPCAG78 RNA-expressing HEK293 cells. […] To confirm that P3V8 inhibited expanded CAG RNA-mediated nucleolar stress, the levels of pre-45s rRNA were measured in EGFPCAG78 RNA-expressing cells with or without treatment of P3V8 (FIG. 3C). Overexpression of the expanded CAG RNA reduced the level of pre-45s rRNA to approximately 40% of the untransfected control.
as §3

The next series relates to wild type Drosophila. Briefly: Egg-to-adult viability test of wild-type flies. It is filed as in vivo. The settings on record: 10 or 50 μM in fly food, 21.5° C. Here is the method: Eggs laid within 5 hr were collected and cultured in fly food containing 10 or 50 μM of respective peptides at 21.5° C. Viability from egg to adult was calculated as the number of adult flies collected divided by the number of eggs examined. Data are expressed as mean±S.E.M. for 3 independent experiments. NS indicates no significance.
Flies were raised at 21.5° C. on cornmeal medium supplemented with dry yeast. Fly lines bearing UAS-DsRedCAG0 and UAS-DsRedCAG100 were kind gifts of Professor Nancy Bonini (University of Pennsylvania, USA). The gmr-GAL4 fly line was obtained from Bloomington Drosophila Stock Center. For pseudopupil assay, third instar larvae were fed with various amount of respective peptides dissolved in 2% sucrose solution for 2 hr and then continued to culture in standard fly food at 21.5° C.^38. Pseudopupil assay was performed on 12 day-old adult flies as mentioned previously^39. Images were captured by SPOT Insight CCD camera controlled by the SPOT Advanced software (Diagnostic instruments Inc.). Image processing was performed using the Adobe Photoshop CS software (Adobe). Each experiment was repeated at least 3 times (n=10 fly heads), and consistent results were obtained. […] Viability from egg-to-adult was calculated as the number of adult flies collected divided by the number of eggs examined. […]

On to Ac-DGKSKGIAYIEFK-NH2 [P3V8], for which the Kd stood at 2940 ± 960 nM on MJDCAA/G78 RNA (ITC, 0.7 mM peptide into 0.5 μM MJDCAA/G78 RNA, mean ± S.E.M.); 330 nM on MJDCAG78 RNA; 2190 ± 270 nM on MJDCAG27 RNA (ITC, 0.7 mM peptide into 0.5 μM MJDCAG27 RNA, mean ± S.E.M.). Moreover, the “lower affinity than for expanded CAG RNA” value in the series with MJDCAA/G78 RNA (expanded CAA/G RNA vs expanded MJDCAG78 RNA) and in the series on MJDCAG27 RNA (unexpanded RNA vs expanded MJDCAG78 RNA) was 6-9 fold throughout. In the series on pre-rRNA, the pre-rRNA level entry is “fully recovered to the DsRedCAG0 control level”. Moreover, the “pre-45s rRNA level” value with pre-45s rRNA was “dose-dependent restoration”.
`CCCCCCCCCCCCCCCC(=O)N[C@@H](CC(=O)O)C(=O)NCC(=O)N[C@@H](CCCCN)C(=O)N[C@@H](CO)C(=O)N[C@@H](CCCCN)C(=O)NCC(=O)N[C@H](C(=O)N[C@@H](C)C(=O)N[C@@H](Cc1ccc(O)cc1)C(=O)N[C@H](C(=O)N[C@@H](CCC(=O)O)C(=O)N[C@@H](Cc1ccccc1)C(=O)N[C@@H](CCCCN)C(N)=O)[C@@H](C)CC)[C@@H](C)CC` [L1P3V8] (Palmitoyl-DGKSKGIAYIEFK-NH2): the egg-to-adult viability entry in the series on wild type Drosophila is “no obvious alteration; also recorded: did not affect the viability”.
